Reference: patent US12201679B2, “Epitope-targeted peptide immunostimulants” (priority 2019, dated 2025)
Several values for one entry are separate records, joined by “and”; a condition that tells them apart may be missing. Equal values may be shown once. Entries after “also recorded” stand apart in the source; their conditions may differ. Read-outs that look alike come from different tables or passages of the source. Bridge positions count the residues as written; N and C are the ends. Square brackets hold non-standard residues; d marks the D form. Triazole bridges read from a SMILES are 1,4-linked. Ends that are not written are not given here. Peptide text beside a SMILES is read from it. * marks the point of attachment. Biotin = O=C1N[C@H]2[C@H](CS[C@H]2CCCCC(=O)*)N1; PEG10 = NCCOCCOCCOCCOCCOCCOCCOCCOCCOCCOCCC(=O)O; Lys(N3) = [N-]=[N+]=NCCCC[C@H](N)C(=O)O; Pra = C#CC[C@H](N)C(=O)O

Assays:
[1] = biological target: full-length recombinant MrkA protein (Klebsiella pneumoniae, UniProt P12267); type: binding; details: [MrkA] 25 nM
full-length recombinant MrkA protein, sequence (P12267 23-202): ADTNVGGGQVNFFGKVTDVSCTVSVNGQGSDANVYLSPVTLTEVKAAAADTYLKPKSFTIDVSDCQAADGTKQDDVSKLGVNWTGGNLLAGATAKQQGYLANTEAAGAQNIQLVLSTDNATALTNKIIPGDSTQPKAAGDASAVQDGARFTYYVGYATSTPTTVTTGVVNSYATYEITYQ
Source text: HPraGly is present before X1 in each peptide and Az4 follows X5 in each peptide.

[2] = Isocratic point, elution from C18 prep-scale column; type: physicochemical; details: elution from C18 column
Procedure: PCC compounds were purified on a Waters Autopurification system, which isolated compounds based on MS peaks corresponding to protonated [M+1H]^+ and [M+2H]^2+, and/or sodium adducts [M+Na]^+ and [M+2Na]^2+. The isocratic points of PCCs were determined based on the elution of the compound from a C18 prep-scale column. Synthetic epitopes were either purified on the Waters Autopurification System, or by semi-preparative HPLC and then using matrix-assisted laser desorption/ionization mass spectroscopy to identify fractions with the desired m/z ratio. The resulting peptides were lyophilized, the yield determined by mass difference or UV-visible absorbance, and resuspended at a concentration of up to 10 mM peptide in DMSO. Peptides were stored at −80° C. before thawing for each use.

[3] = test system: K. pneumoniae (strains BAA 1705 & 2146); test: Whole-cell ELISA, biotinylated PCC, multidrug-resistant K. pneumoniae; type: cell-based, Klebsiella pneumoniae; details: biotinylated PCC at 5 μM, FIG. 5C
Procedure: Detection of the binding of biotinylated PCCs to bacterial surface was performed as follows. 10^8 bacteria from a culture grown overnight were used for each test. […] After washing thrice with PBS to remove unbound PCCs, bacteria were incubated with Streptavidin-HRP (1:1000) for 1 h at 37° C. Bacteria were washed thoroughly and the TMB reagent was added until visible coloration was observed. The reaction was quenched using 2N H2SO4 and absorbance was measured at 450 nm.

[4] = test system: K. pneumoniae cells (strain BAA 2146); test: Flow cytometry, recruitment of fluorescent anti-DNP antibodies; type: cell-based, Klebsiella pneumoniae; details: cy(LLFFF)-DNP 1 or 5 μM; cy(HNGPT) 50 μM; plus fluorescent anti-DNP
Procedure: To test this, cells were incubated with DNP-conjugated EPIs and then fluorescently labeled anti-DNP antibody (Alexafluor488), and subsequently quantified the fluorescence of cells by using flow cytometry.
Cytometry measurements were gated for single cells, and each distribution comprises >18,000 cells.
Cytometry measurements were used to quantify AR-PCC-driven opsonization and opsonophagocytic killing of K. pneumoniae cells. For these measurements, K. pneumoniae cells were cultured in G-CAA medium overnight, washed, incubated with DNP-tagged AR-PCC at a desired concentration, washed, incubated with anti-DNP antibody conjugated with Alexafluor488, washed, then resuspended in PBS media. The samples were stored at 4° C. for 2 d before cytometry measurements were performed. The cytometer was calibrated by using Rainbow fluorescent beads (3.5 μm diameter) 3.5 m from BD (559123), which aided identification of single K. pneumoniae cells in subsequent measurements. Samples were excited with 488 nm light and the fluorescence emission at 530 nm was measured. Sample with no Alexaflour488 stain was used as fluorescent minus one (FMO) control for gating of DNP+ population. FACS data was analyzed on FlowJo v10 software, and the resulting histograms each include fluorescence data from >18,000 cells for strain BAA 2146 (FIG. 4B) and >4,000 cells for strain BAA 1705 (data not shown).

[5] = test system: K. pneumoniae cells (strain BAA 1705); test: Gentamicin protection assay: phagocytosis and opsonophagocytic killing (OPK) by macrophages; type: cell-based, Klebsiella pneumoniae; details: for phagocytosis at 1 h, AR-PCC only (no anti-DNP): control samples; for colony counts at 1 h, EPI plus anti-DNP antibody: 5 μM AR-PCC, murine BMDMs
Procedure: It also tested whether DNP-conjugated EPIs could promote the opsonophagocytic killing (OPK) of K. pneumoniae by macrophages. This was tested by using an OPK assay. Briefly, K. pneumoniae cells were treated with EPI and then anti-DNP antibody before being exposed to macrophages for either 6 or 24 hours. During this incubation period, macrophages that recognize K. pneumoniae cells will phagocytose them, and phagocytosed bacteria will remain viable for up to 6 hours, but within 24 hours are rendered inviable by OPK. Thus, macrophages were isolated after 6 and 24 hours of incubation with K. pneumoniae, lysed them, and plated and grew the lysate, which yielded bacterial colonies that reflect the phagocytosis (at 6 hrs) or OPK (at 24 hrs) of bacteria.
Given that cy(LLFFF)-DNP (SEQ ID NO:5) recruits antibodies to K. pneumoniae surfaces, it was expected that K. pneumoniae opsonized in this manner would be more susceptible to phagocytosis by macrophages. AR-PCC-driven phagocytosis and OPK were quantified by a gentamicin protection assay, as depicted in FIG. 7A. For this assay, K. pneumoniae cells (strain BAA 1705) were treated with cy(LLFFF)-DNP (SEQ ID NO:5), opsonized by anti-DNP antibodies, and then incubated with murine bone-marrow-derived macrophages (BMDMs). BMDMs were subsequently exposed to a solution containing gentamicin, to which K. pneumoniae strain BAA 1705 is susceptible, to kill any extracellular bacteria. Phagocytosed bacteria remain viable inside BMDMs for at least 1 h, yet are rendered inviable after 24 h by OPK (FIG. 13). Macrophages harvested at 1 h and 24 h were lysed and plated to generate bacterial colonies, which were enumerated to quantify phagocytosis and OPK.
Klebsiella pneumoniae BAA1705 was treated with DNP-PCCs followed by incubation with anti-DNP antibody, as described above in the “Cell-Based ELISAs” section. These opsonized bacteria were then used to infect BMDMs at a multiplicity of infection of 50 for 0.5 h at 37° C. Bacteria were then washed by using RPMI 1640 Media and BMDMs were left in cell culture medium containing gentamicin (100 μg/ml). After 1 h and 24 h BMDMs were washed to remove gentamicin and intracellular bacteria were harvested by lysing BMDMs in RPMI media containing 0.2% Triton X 100. Bacterial CFUs were enumerated by plating onto LB agar. Bacterial counts at 1 h indicated the degree of opsonization while those at 24 h served as a measure of microbicidal activity of macrophages. For these measurements, anti-MrkA antibody and K. pneumoniae antiserum were used at dilutions of 5 μg/mL each.

Row | Molecule | Isocratic point (%) [2] | Relative affinity (ratio of ELISA signal versus cy(LLFFF)) ([1]; ELISA 6) | phagocytosis at 1 h, AR-PCC only (no anti-DNP) ([5]; 1 h) | also measured
1 | CC(C)C[C@@H]1NC(=O)[C@@H](NC(=O)CCOCCOCCOCCOCCOCCOCCOCCOCCOCCOCCNC(=O)[C@H](CCCNC(=N)N)NC(=O)[C@H](CCCNC(=N)N)NC(=O)[C@H](CCCNC(=N)N)NC(=O)[C@H](CCCNC(=N)N)NC(=O)[C@H](CCCNC(=N)N)NC(=O)[C@H](CCCNC(=N)N)NC(=O)[C@H](CCCNC(=N)N)NC(=O)[C@H](CCCNC(=N)N)NC(=O)[C@H](CCCNC(=N)N)NC(=O)CCOCCOCCOCCOCCOCCOCCOCCOCCOCCOCCNC(=O)CCCC[C@@H]2SC[C@@H]3NC(=O)N[C@@H]32)Cc2cn(nn2)CCCC[C@@H](C(N)=O)NC(=O)[C@H](Cc2ccccc2)NC(=O)[C@H](Cc2ccccc2)NC(=O)[C@H](Cc2ccccc2)NC(=O)[C@H](CC(C)C)NC1=O [compound 18] | 37.03% |  |  | Relative affinity (ratio of ELISA signal versus cy(LLFFF)) ([1]; ELISA 5): 0.58
2 | CC(C)C[C@@H]1NC(=O)[C@H](Cc2c[nH]cn2)NC(=O)[C@@H](NC(=O)CCOCCOCCOCCOCCOCCOCCOCCOCCOCCOCCNC(=O)CCCC[C@@H]2SC[C@@H]3NC(=O)N[C@@H]32)Cc2cn(nn2)CCCC[C@@H](C(N)=O)NC(=O)[C@H](Cc2ccccc2)NC(=O)[C@H](Cc2ccccc2)NC(=O)[C@H](Cc2ccccc2)NC1=O [compound 19] ({Biotin-PEG10}-[Pra]HLFFF[Lys(N3)]-NH2; triazole 1-7) | 47.52% | 0.81 |  | 
3 | CC(C)C[C@@H]1NC(=O)[C@H](CC(=O)O)NC(=O)[C@@H](NC(=O)CCOCCOCCOCCOCCOCCOCCOCCOCCOCCOCCNC(=O)CCCC[C@@H]2SC[C@@H]3NC(=O)N[C@@H]32)Cc2cn(nn2)CCCC[C@@H](C(N)=O)NC(=O)[C@H](Cc2ccccc2)NC(=O)[C@H](Cc2ccccc2)NC(=O)[C@H](Cc2ccccc2)NC1=O [compound 20] ({Biotin-PEG10}-[Pra]DLFFF[Lys(N3)]-NH2; triazole 1-7) | 66.33% | 0.21 |  | 
4 | CC(C)C[C@@H]1NC(=O)[C@@H](NC(=O)CCOCCOCCOCCOCCOCCOCCOCCOCCOCCOCCNC(=O)CCCC[C@@H]2SC[C@@H]3NC(=O)N[C@@H]32)Cc2cn(nn2)CCCC[C@@H](C(N)=O)NC(=O)[C@H](Cc2ccccc2)NC(=O)[C@H](Cc2ccccc2)NC(=O)[C@H](CC(C)C)NC1=O [compound 21] ({Biotin-PEG10}-[Pra]LLFF[Lys(N3)]-NH2; triazole 1-6) | 64.99% | 0.14 |  | 
5 | CC(C)C[C@@H]1NC(=O)[C@@H](NC(=O)CCOCCOCCOCCOCCOCCOCCOCCOCCOCCOCCNC(=O)CCCC[C@@H]2SC[C@@H]3NC(=O)N[C@@H]32)Cc2cn(nn2)CCCC[C@@H](C(N)=O)NC(=O)[C@H](Cc2ccccc2)NC(=O)[C@H](CC(C)C)NC1=O [compound 22] ({Biotin-PEG10}-[Pra]LLF[Lys(N3)]-NH2; triazole 1-5) | 56.45% | 0.09 |  | 
6 | NC(=O)[C@@H]1CCCCn2cc(nn2)C[C@H](NC(=O)CCOCCOCCOCCOCCOCCOCCOCCOCCOCCOCCNC(=O)CCCC[C@@H]2SC[C@@H]3NC(=O)N[C@@H]32)C(=O)N[C@@H](Cc2ccccc2)C(=O)N[C@@H](Cc2ccccc2)C(=O)N[C@@H](Cc2ccccc2)C(=O)N1 [compound 23] ({Biotin-PEG10}-[Pra]FFF[Lys(N3)]-NH2; triazole 1-5) | 60.27% | 0.14 |  | 
7 | cy(HNGPT) (not fully specified (bridges); printed as cy(HNGPT); also: cyclic, closure not given here) [reference compound] |  |  |  | whole-cell ELISA signal, K. pneumoniae BAA 1705 and BAA 2146 [3]: comparably lower signal; also recorded: no or minimal binding above baseline; fluorescence of cells [4]: Slightly greater fluorescence; CFU, DNP-conjugated EPI plus anti-DNP, macrophages harvested at 6 hrs ([5]; 6 hrs): almost identical CFU count; cell counts, DNP-conjugated EPI only (no antibody), macrophages harvested at 6 hrs ([5]; 6 hrs): ~35,000
8 | cy(LLFFA)-DNP (not fully specified (bridges); printed as cy(LLFFA)-DNP; also: DNP label) |  |  | None of these treatments elicited phagocytosis above basal levels | phagocytosis at 1 h, DNP-tagged AR-PCC plus anti-DNP (words) ([5]; 1 h, FIG. 7B): None of these treatments elicited phagocytosis above basal levels
9 | cy(LLFFF)+R6-DNP (LLFFFRRRRRR; not fully specified (C-terminus); printed as cy(LLFFF)+R6-DNP; also: cyclic over residues 1-5, ring closure not given here) |  |  | None of these treatments elicited phagocytosis above basal levels | colony counts at 1 h, EPI plus anti-DNP antibody ([5]; 1 h): 85,000 CFU
10 | cy(LLFFF)-DNP (cyclo(LLFFF); also: DNP label) |  |  | None of these treatments elicited phagocytosis above basal levels | fluorescence of cells [4]: much higher fluorescence; colony counts at 1 h, EPI plus anti-DNP antibody ([5]; 1 h): 89,000 CFU and 85,000 CFU; level of phagocytosis lower than K. pneumoniae antiserum and anti-MrkA treatment ([5]; plus anti-DNP, 1 h): about 15%
